Target: ATP-dependent translocase ABCB1 (Homo sapiens, UniProt P08183)
Test: TP_TRANSPORTER: transepithelial transport in Caco-2 cells
Format: functional, cell-based

ATP-dependent translocase ABCB1, sequence (P08183 whole entry): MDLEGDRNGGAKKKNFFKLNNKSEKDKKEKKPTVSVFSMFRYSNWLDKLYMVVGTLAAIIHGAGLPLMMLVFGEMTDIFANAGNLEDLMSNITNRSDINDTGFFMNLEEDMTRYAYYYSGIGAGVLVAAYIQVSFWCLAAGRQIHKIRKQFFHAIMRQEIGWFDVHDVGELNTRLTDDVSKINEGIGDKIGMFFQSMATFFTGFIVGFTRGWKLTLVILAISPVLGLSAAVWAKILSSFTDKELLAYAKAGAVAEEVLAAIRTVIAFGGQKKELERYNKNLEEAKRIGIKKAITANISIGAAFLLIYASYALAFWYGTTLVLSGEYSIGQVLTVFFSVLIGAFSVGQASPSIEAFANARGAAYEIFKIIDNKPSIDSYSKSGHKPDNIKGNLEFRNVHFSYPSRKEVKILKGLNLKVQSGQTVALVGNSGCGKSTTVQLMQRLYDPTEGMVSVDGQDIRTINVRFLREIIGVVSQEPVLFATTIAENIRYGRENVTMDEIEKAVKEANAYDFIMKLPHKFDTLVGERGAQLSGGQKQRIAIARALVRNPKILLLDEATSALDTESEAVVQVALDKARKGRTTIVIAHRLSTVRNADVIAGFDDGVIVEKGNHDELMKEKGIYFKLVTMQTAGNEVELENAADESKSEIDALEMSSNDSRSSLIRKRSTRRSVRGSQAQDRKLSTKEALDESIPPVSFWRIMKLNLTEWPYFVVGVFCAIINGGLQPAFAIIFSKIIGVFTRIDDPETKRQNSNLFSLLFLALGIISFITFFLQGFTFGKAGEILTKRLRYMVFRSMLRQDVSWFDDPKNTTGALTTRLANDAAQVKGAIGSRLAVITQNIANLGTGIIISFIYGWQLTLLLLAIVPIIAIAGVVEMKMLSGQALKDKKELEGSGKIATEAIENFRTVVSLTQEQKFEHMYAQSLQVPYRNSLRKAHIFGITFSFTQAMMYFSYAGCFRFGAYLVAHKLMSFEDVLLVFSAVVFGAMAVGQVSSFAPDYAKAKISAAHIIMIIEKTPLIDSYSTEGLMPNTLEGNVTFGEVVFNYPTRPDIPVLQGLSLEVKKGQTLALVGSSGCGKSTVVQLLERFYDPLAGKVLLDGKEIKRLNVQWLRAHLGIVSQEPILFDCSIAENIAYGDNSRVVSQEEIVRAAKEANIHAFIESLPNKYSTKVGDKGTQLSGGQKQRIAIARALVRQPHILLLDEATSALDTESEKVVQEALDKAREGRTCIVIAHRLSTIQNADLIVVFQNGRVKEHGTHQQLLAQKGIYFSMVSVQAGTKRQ

Row | Activity | Compound
1 | substrate [+] | C[C@H]1O[C@@H](O[C@H]2[C@@H](O)C[C@H](O[C@H]3[C@@H](O)C[C@H](O[C@H]4CC[C@@]5(C)[C@H](CC[C@@H]6[C@@H]5C[C@@H](O)[C@]5(C)[C@@H](C7=CC(=O)OC7)CC[C@]65O)C4)O[C@@H]3C)O[C@@H]2C)C[C@H](O)[C@@H]1O [DIGOXIN]
2 | is not a substrate [-] | COCCc1ccc(OCC(O)CNC(C)C)cc1 (configuration not stated) [METOPROLOL]
